Patent publication US20090018134A1, “Compounds - 945” (AstraZeneca AB, priority 2007, published 2009)

The compounds below were run against T1, mTOR (Homo sapiens, UniProt P42345) (assay: In Vitro mTOR Kinase Assay (Echo), Test (a)(ii)). Conditions: read-out: mTOR Kinase Assay (Echo).
T1 construct: FLAG; made in house
Format: biochemical
How it was run: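 FLAG-tagged truncated mTOR (residues 1362-2549), expressed in HEK293 and purified via the FLAG tag, phosphorylated a biotinylated peptide over 2 hours at room temperature. EDTA stopped the reaction. Phospho-T389 was detected overnight by AlphaScreen using the p70 S6K T389 antibody with Protein A/streptavidin beads; IC50 reported.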

T1 sequence (P42345 1362-2549): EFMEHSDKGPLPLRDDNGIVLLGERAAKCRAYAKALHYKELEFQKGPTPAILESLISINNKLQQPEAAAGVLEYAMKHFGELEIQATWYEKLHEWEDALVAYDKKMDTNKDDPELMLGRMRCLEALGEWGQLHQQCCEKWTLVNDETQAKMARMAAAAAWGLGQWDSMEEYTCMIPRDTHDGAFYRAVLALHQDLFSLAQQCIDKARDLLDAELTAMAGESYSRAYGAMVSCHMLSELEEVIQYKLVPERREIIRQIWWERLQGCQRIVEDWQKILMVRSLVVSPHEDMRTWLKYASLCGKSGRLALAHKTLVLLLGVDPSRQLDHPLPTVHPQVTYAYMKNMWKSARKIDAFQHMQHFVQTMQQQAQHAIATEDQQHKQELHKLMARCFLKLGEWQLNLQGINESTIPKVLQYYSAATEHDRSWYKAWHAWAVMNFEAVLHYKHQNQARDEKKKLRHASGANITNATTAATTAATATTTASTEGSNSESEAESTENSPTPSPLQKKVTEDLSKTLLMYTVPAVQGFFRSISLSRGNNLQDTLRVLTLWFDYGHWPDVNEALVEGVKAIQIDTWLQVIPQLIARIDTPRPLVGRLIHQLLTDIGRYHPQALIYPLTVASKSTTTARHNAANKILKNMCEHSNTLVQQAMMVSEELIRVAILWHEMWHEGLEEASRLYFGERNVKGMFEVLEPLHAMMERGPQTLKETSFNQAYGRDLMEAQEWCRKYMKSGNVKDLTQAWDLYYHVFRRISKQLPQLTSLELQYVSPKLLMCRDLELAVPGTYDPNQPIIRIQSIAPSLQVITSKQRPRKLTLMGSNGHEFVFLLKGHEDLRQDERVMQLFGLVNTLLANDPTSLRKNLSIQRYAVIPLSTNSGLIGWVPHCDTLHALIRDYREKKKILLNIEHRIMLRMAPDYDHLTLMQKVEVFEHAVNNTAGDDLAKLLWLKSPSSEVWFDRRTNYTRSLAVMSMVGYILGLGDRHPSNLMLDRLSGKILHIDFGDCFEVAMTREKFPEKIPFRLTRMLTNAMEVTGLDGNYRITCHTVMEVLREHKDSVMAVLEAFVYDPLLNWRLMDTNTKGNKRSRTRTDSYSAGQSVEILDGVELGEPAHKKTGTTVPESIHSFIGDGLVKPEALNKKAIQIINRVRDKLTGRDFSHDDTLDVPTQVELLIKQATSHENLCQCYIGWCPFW

IC50 [nM]	SMILES
3.33	C[C@H]1COCCN1c1cc(C2(S(C)(=O)=O)CCC2)nc(-c2ccc(NC(=O)Nc3ccc(C(F)(F)F)cc3)cc2)n1 [Example 5k, 1-[4-[4-[(3S)-3-methylmorpholin-4-yl]-6-(1-methylsulfonylcyclobutyl)pyrimidin-2-yl]phenyl]-3-[4-(trifluoromethyl)phenyl]urea]

Same assay, conditions: table of enzyme assay Test (a)(ii); read-out: Test (a)(ii) IC50

SMILES	IC50 [nM]
C[C@H]1COCCN1c1cc(C2(S(=O)(=O)C3CC3)CC2)nc(-c2cnc(NC(=O)Nc3cnn(C)c3)nc2)n1 [Example 14z, 1-[5-[4-(1-cyclopropylsulfonylcyclopropyl)-6-[(3S)-3-methylmorpholin-4-yl]pyrimidin-2-yl]pyrimidin-2-yl]-3-(1-methylpyrazol-4-yl)urea]	171
C[C@H]1COCCN1c1cc(C2(S(=O)(=O)c3ccccn3)CCCC2)nc(-c2ccc(NC(=O)NC3CC3)cc2)n1 [Example 36ab, 3-cyclopropyl-1-[4-[4-[(3S)-3-methylmorpholin-4-yl]-6-(1-pyridin-2-ylsulfonylcyclopentyl)pyrimidin-2-yl]phenyl]urea]	11
CCS(=O)(=O)C1(c2cc(N3CCOC[C@@H]3C)nc(-c3ccc(NC(=O)NCCF)cc3)n2)CC1 [Example 36ef, 1-[4-[4-(1-ethylsulfonylcyclopropyl)-6-[(3S)-3-methylmorpholin-4-yl]pyrimidin-2-yl]phenyl]-3-(2-fluorethyl)urea]	8.41
C[C@H]1COCCN1c1cc(C2(S(=O)(=O)c3ccncc3)CCC2)nc(-c2ccc(NC(=S)NCc3ncc[nH]3)cc2)n1 [Example 63, 3-(1H-Imidazol-2-ylmethyl)-1-[4-[4-[(3S)-3-methylmorpholin-4-yl]-6-(1-pyridin-4-ylsulfonylcyclobutyl)pyrimidin-2-yl]phenyl]thiourea]	72.5
Cc1csc(S(=O)(=O)C2(c3cc(N4CCOC[C@@H]4C)nc(-c4ccc(NC(=O)NCCCO)cc4)n3)CC2)n1 [Example 25l, 3-(3-hydroxypropyl)-1-[4-[4-[(3S)-3-methylmorpholin-4-yl]-6-[1-[(4-methyl-1,3-thiazol-2-yl)sulfonyl]cyclopropyl]pyrimidin-2-yl]phenyl]urea]	0.956

The remaining lines, values ahead:

IC50 [nM]	SMILES
33	C[C@H]1COCCN1c1cc(C2(S(C)(=O)=O)CC2)nc(-c2ccc(NC(=S)Nc3cnn(C)c3)cc2)n1 [Example 37o, 1-[4-[4-[(3S)-3-methylmorpholin-4-yl]-6-(1-methylsulfonylcyclopropyl)pyri-midin-2-yl]phenyl]-3-(1-methylpyrazol-4-yl)thiourea]
7.46	C[C@H]1COC[C@H](C)N1c1cc(C2(S(=O)(=O)C3CC3)CC2)nc(-c2ccc(NC(=O)Nc3cnn(C)c3)cc2)n1 [Example 92b, 1-[4-[4-(1-cyclopropylsulfonylcyclopropyl)-6-[(3S,5S)-3,5-dimethylmorpholin-4-yl]pyrimidin-2-yl]phenyl]-3-(1-methylpyrazol-4-yl)urea]
11	C[C@H]1COCCN1c1cc(C2(S(=O)(=O)C3CCOCC3)CC2)nc(-c2ccc(NC(=O)NCCO)cc2)n1 [Example 94d, 3-(2-hydroxyethyl)-1-[4-[4-[(3S)-3-methylmorpholin-4-yl]-6-[1-(oxan-4-ylsulfonyl)cyclopropyl]pyrimidin-2-yl]phenyl]urea]
197	CNC(=O)Nc1ncc(-c2nc(N3CCOC[C@@H]3C)cc(C3(S(C)(=O)=O)CCCC3)n2)cn1 [Example 14t, 3-methyl-1-[5-[4-[(3S)-3-methylmorpholin-4-yl]-6-(1-methylsulfonylcyclopentyl)pyri-midin-2-yl]pyrimidin-2-yl]urea]
2.94	Cc1csc(S(=O)(=O)C2(c3cc(N4CCOC[C@@H]4C)nc(-c4ccc(NC(=S)NC5CC5)cc4)n3)CC2)n1 [Example 37q, 3-cyclopropyl-1-[4-[4-[(3S)-3-methylmorpholin-4-yl]-6-[1-[(4-methyl-1,3-thiazol-2-yl)sulfonyl]cyclopropyl]pyri-midin-2-yl]phenyl]thiourea]
